Ends that are not written are not given here.
Key:
Assay type in all cases: in vivo
[1] = system: human IL-17A epitope (BSA conjugate); test: Antibody titer by ELISA after human IL-17A epitope vaccines in BALB/c mouse; details: 6 weeks from the first administration, 3 times at 2-week intervals (FIG. 18, 20, 21)
Procedure: Production of plate: Mouse IL-17A1 epitope+BSA conjugate and mouse IL-17A2 epitope+BSA conjugate were dispensed to a 96 well plate at a concentration of 10 μg/ml, and stood at 4° C. overnight. Recombinant mouse IL-17A was dispensed to a 96 well plate at a concentration of 0.25 μg/ml and stood at 4° C. overnight.
The aforementioned plate was washed once with PBS (200 μl), and blocked with 5% skim milk in PBS for 2 hr. The primary antibody (mouse antiserum) was serially diluted with 5% skim milk in PBS, applied by 50 μl to a 96 well plate, and incubated at 4° C. overnight.
The aforementioned plate was washed 7 times with PBS-T (0.05% Tween) (200 μl), the secondary antibody (anti-mouse IgG Ab-HRP-labeled) was diluted 1/1000 (5% skim milk), added by 50 μl, and incubated at ambient temperature for 3 hr. The plate was washed 3 times with PBS-T (0.05% Tween) (200 μl), TMB solution (50 μl) was added, shaded and incubated at ambient temperature for 30 min. 0.5N H2SO4 (50 μl) was added to discontinue the reaction and absorbance was measured at 450 nm.
(§1) A vaccine containing a peptide consisting of the following human IL-17A1 epitope (KLH conjugated) corresponding to mouse IL-17A1 epitope (RPSDYLNR (SEQ ID NO: 5)) was produced, and intradermally administered to BALB/c mouse 3 times at 2-week intervals. The serum antibody titer was measured at 6 weeks from the first administration according to the method described in Example 1.
In addition, a vaccine containing a peptide consisting of two kinds of epitopes (human IL-17A2 epitope, human IL-17A3 epitope) of the following human IL-17A (KLH conjugated) was produced, and intradermally administered to BALB/c mouse 3 times at 2-week intervals. The serum antibody titer was measured at 6 weeks from the first administration according to the method described in Example 1.
Furthermore, a vaccine containing a peptide consisting of the following human IL-17A4, which is a partial sequence of human IL-17A1 epitope (KLH conjugated), was produced. […]

[2] = system: DBA/1 mouse, arthritis caused by Type II collagen; test: Type II collagen arthritis model mouse, human IL-17A peptide vaccines; details: Experiment 8, KLH conjugated peptide vaccines (FIG. 22B)
Procedure: A vaccine containing a peptide consisting of human IL-17A1 epitope, human IL-17A2 epitope or human IL-17A4 epitope was administered to femoral muscle of each of the following 6-week-old male mice (KLH conjugated) 3 times at 2-week intervals (120 μg/60 μl×1 site/administration). Type II collagen and CFA (complete Freund's adjuvant) were administered at 28 days from the first vaccine administration, and Type II collagen and IFA (incomplete Freund's adjuvant) were administered at 42 days from the first vaccine administration, to induce arthritis. Thereafter, the level of arthritis was observed 3 times per week and scored.
H17 (human IL-17A1 epitope) group: 3 mice
AF4 (human IL-17A4 epitope) group: 3 mice
AF5 (human IL-17A2 epitope) group: 3 mice

[3] = molecular target: T1, mouse IL-17A1 epitope (BSA conjugate) (Mus musculus, UniProt Q62386); test: ELISA intersection reactivity of antiserum with mouse IL-17A1 epitope; details: serum of BALB/c mouse immunized with human epitope vaccine (FIG. 19A)
T1 construct: BSA-IL-17A1 (RPSDYLNR) conjugate (No5 BSA conjugate)
Procedure: The primary antibody (mouse antiserum) was diluted 10-fold, and then serially diluted by 5-fold and used. […]
as §1

| Substance | serum antibody titer [1] | clinical score of arthritis [2] | intersection reactivity of serum with mouse IL-17A1 epitope [3] |
| --- | --- | --- | --- |
| human IL-17A2 epitope: vaccine containing a peptide consisting of human IL-17A2 epitope ADGNVDYHMNSVPIQQE (SEQ ID NO: 8), KLH conjugated (also: KLH conjugated; listed as Homo sapiens) | increased | suppressive effect on the onset and progression of arthritis | – |
| human IL-17A1 epitope: vaccine containing a peptide consisting of human IL-17A1 epitope RSSDYYNR (SEQ ID NO: 1), KLH conjugated (also: KLH conjugated; listed as Homo sapiens) | increased | suppressive effect on the onset and progression of arthritis | showed intersection reactivity |
| human IL-17A4 epitope: vaccine containing a peptide consisting of human IL-17A4 epitope SDYYN (SEQ ID NO: 11), KLH conjugated (also: KLH conjugated; listed as Homo sapiens) | increased | suppressive effect on the onset and progression of arthritis | – |
